Laboratory results as given in patent US20090311723A1, “FLUORESCENCE-BASED ASSAY FOR MONOACYLGLYCEROL LIPASE COMPATIBLE WITH INHIBITOR SCREENING” (WYETH, priority 2007, published 2009).
Blank lines part the entries; values can stand above or below the molecule they belong to.

Tests used:
[1] = Stability of 7-HCA in assay buffer over time; type: physicochemical; details: 25° C.
Description: The stability of 7-HCA in assay buffer was monitored over time and found to be stable for at least 5 hours at 25° C.

[2] = molecular target: T1, recombinant human MGL protein (Homo sapiens, UniProt Q99685); test: Fluorescence assay of MGL inhibition with 7-HCA as substrate; type: biochemical; details: for IC50: 3 ng MGL, 10 μM 7-HCA, pH 8, 25° C., 60 minutes
T1 construct: a mixture of forward and reverse primers spanning the entire coding region; made in house; host or cells: E. coli BL21
T1 sequence (Q99685 1-303): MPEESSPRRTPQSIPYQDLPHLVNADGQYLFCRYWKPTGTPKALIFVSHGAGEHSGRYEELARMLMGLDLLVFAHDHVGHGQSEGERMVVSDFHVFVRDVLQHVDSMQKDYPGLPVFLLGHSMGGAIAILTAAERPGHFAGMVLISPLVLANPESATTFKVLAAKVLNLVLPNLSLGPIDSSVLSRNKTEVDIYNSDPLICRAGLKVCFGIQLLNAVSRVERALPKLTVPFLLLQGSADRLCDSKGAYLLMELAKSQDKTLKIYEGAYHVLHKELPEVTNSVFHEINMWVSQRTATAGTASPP
Description: For measuring MGL inhibition by compounds, 3 ng protein per assay were incubated with indicated concentrations of the compound in the presence of 10 mM 7-HCA for 60 minutes. The reactions were stopped and processed as described above. Results are presented as the mean±S.E. of triplicate measurements from at least two independent experiments. The IC50 values were calculated by […]™ Prism 3.02 program using a sigmoidal dose-response equation.
Inhibition of MGL activity by URB602 was studied by treating 3 ng of MGL protein with increasing concentrations of URB602 with 7-HCA as substrate at pH 8, and 25° C., for 60 minutes in a total volume of 50 μl.
According to FIG. 7, the assay was carried out by incubating 3 ng of MGL protein with 10 μM 7-HCA and indicated concentrations of compounds in 50 mM HEPES, pH 8, 1 mM EDTA and 10% DMSO, at 25° C. for 60 minutes. The percent inhibition of MGL activity was plotted against compound concentration, and the IC50 was calculated by fitting the curve to a non-linear regression equation using […]™ Prism 3.02. Each data point represents mean±SD (n=3) from at least 2 individual experiments.

MGL [3] = molecular target: T2, MGL (Rattus norvegicus, UniProt Q8R431); details: Makara 2005; later demonstrated to be false positive (impurity); read-out: IC50 of MGL previously reported; cited from earlier work
T2 sequence (Q8R431 1-303): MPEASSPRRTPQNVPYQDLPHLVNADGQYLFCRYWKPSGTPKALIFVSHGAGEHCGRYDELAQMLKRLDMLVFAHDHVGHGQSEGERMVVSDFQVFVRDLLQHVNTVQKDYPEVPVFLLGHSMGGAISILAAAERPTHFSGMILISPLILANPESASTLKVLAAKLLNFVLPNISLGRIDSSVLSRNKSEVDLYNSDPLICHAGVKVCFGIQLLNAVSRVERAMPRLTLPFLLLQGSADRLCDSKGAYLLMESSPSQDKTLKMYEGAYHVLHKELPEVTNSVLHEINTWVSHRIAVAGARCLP

MGL [4] = molecular target: T2, MGL; design: from tissue; host or cells: rat brain, periaqueductal grey, in vivo (reported from Hohmann 2005); details: micro-injection into periaqueductal grey, blocked by CB1 antagonist SR141716; cited from earlier work
[5] = substrate: C=CCCCCC(=O)Oc1ccc2ccc(=O)oc2c1; test: Rate of hydrolysis of fluorogenic substrates by MGL (Michaelis-Menten kinetics, 7-HC fluorescence); type: biochemical, human; details: other: 3 ng/well MGL, 10% DMSO, pH 8.0, room temperature, read after 10 minutes, ND = not detectable activity
Description: (§1) The assay was performed in a 384-well black plate (NUNC) in a total volume of 50 μl. A typical assay consisted of 3 ng of MGL protein, 10 mM 7-HCA substrate (prepared in DMSO) in assay buffer consisting of 50 mM HEPES, pH 8, 1 mM EDTA, and […] of inhibitor solution or DMSO (10% final concentration). The components were mixed and incubated on a shaker for 10-60 min and the plate was read in a fluorescence plate reader (SPECTRAMAX™-Gemini; Ex: 355 nm; Em: 460 nm). The reaction was carried out at 25° C., and the fluorescence was monitored in the kinetic mode. The fluorescence units were converted to amount of product based on the standard curve generated with 7-HC. The data were analyzed using GRAPHPAD™ Prism Version 3.02. The observed rate constants (apparent KM) were calculated using GRAPHPAD™ Prism 3.02 based on a Michaelis-Menten (one site binding hyperbola) equation Y=BmaxX/[Kd+X].
(§2) Table 3, shown below, depicts rates of hydrolysis for MGL with representative fluorogenic substrates. Rates were measured at reactions containing 3 ng/well MGL protein, a series of concentrations of above compounds in 10% DMSO, pH 8.0, and room temperature. The 7-HC fluorescence (λex=355 nm, λem=460 nm) was read after 10-minutes. The data were analyzed and the Vmax and Km calculated using the Michaelis-Menten equation. *ND means “not detectable activity.”
(§3) The kinetic constants, KM (apparent) and Vmax were calculated by determining the MGL activity with increasing substrate concentrations. 3 ng MGL protein were incubated with increasing 7-HCA concentrations, at pH 8, 25° C., for 10 minutes in a 384-well black plate, in a total volume of 50 μl. Specific activity of MGL was plotted against the substrate concentration and the data was fit to a non-linear regression equation (FIG. 6). […] The Lineweaver-Burk plot is shown as an insert within FIG. 6.
(§4) According to FIG. 6, a 50 μl MGL reaction, containing 3 ng/well MGL protein, the indicated concentrations of 7-HCA and 10% DMSO, was performed at room temperature. The 7-HC fluorescence (λex=355 nm, λem=460 nm) was read after 10-minutes. The data were analyzed and the Vmax and KM calculated using the Michaelis-Menten equation. A Lineweaver-Burk plot of 7-HCA hydrolysis by substrate is also shown.

[6] = substrate: CCCCC/C=C\C/C=C\C/C=C\C/C=C\CCCC(=O)Oc1ccc2ccc(=O)oc2c1; test: as above; type: biochemical, human; details: other: 3 ng/well MGL, 10% DMSO, pH 8.0, room temperature, read after 10 minutes, ND = not detectable activity
Description: as §1, §2, §3, §4

Molecule: CCCCC/C=C\C/C=C\C/C=C\C/C=C\CCCC(=O)Oc1ccc2ccc(=O)oc2c1 [7-HCA, 7-Hydroxycoumarinyl-arachidonate]
stability in assay buffer [1]: at least 5 hours

Molecule: CCCCC/C=C\C/C=C\C/C=C\C/C=C\CCCCN1C(=O)C=CC1=O [N-Arachidonyl Maleimide (NAM), N-Arachidonyl Maleimide]
IC50 [2]: 155 nM

B1: recombinant human MGL protein (Homo sapiens) (protein)
chain: T1 sequence (Q99685 1-303)
notes: a mixture of forward and reverse primers spanning the entire coding region; made in house; host or cells: E. coli BL21
Km [5]: 9.3 µM
Vmax [5]: 1.3 µmol/min/mg
Km [6]: 9.8 µM
Vmax [6]: 1.7 µmol/min/mg

Second part, led by results:

inhibition of MGL activity (negative control) ([2]; concentrations up to 100 μM): failing to inhibit MGL activity
Molecule: Cc1ccc(Nc2nc3ccc(C)cc3c(=O)o2)cc1 [URB754]
IC50 (MGL [3]): 50 nM

IC50 [2]: 3600 nM
IC50 ([2]; listed as URB-602): 3100 nM
Molecule: O=C(Nc1cccc(-c2ccccc2)c1)OC1CCCCC1 [URB602]
effect on stress-induced antinociception (MGL [4]): enhanced stress-induced antinociception
